The source of these data is PubChem BioAssay (NCI).

Values joined by “and” are separate entries in the source; they are usually repeats but may differ in a detail not shown here. Identical values can stand only once.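 Test compounds were applied to cells in 96-well plates for 48 hours at 5 doses. GI50: concentration for 50% inhibition of growth. The concentration for full growth arrest is given as TGI.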

Common to all, as to assay: DTP human tumour cell line panel, 48 h
For experiment [1], the system named is ACHN renal.
Experiment [2] relates to HCT-15 colon.
The test system of experiment [3] is HL-60(TB) leukemia.
The subject of experiment [4] is K-562 leukemia.
Experiment [5] has as its system KM12 colon.
In experiment [6] the test system is MDA-MB-231 breast.
For experiment [7], the system named is SK-MEL-5 melanoma.
For experiment [8], the system named is SK-OV-3 ovarian.
Experiment [9] concerns TK-10 renal.
Experiment [10] has as its system NCI-H226 lung.

For the compound `CCCNc1ncnc2[nH]ncc12`, the TGI in experiment [1], in [2], in [3], in experiment [4], in experiment [5] and in [6] was greater than 100 µM in each case. Also, the concentration for total growth inhibition (TGI) in experiment [7], in experiment [8] and in experiment [9] was greater than 100 µM in each case.

With `CN(C)c1ccc(/C=C2\N=C(c3ccccc3)N(c3ccc4c(c3)Sc3cc(N5C(=O)/C(=C/c6ccc(N(C)C)cc6)N=C5c5ccccc5)ccc3N4)C2=O)cc1`, the TGI (as a rule, the concentration at which net growth stops) is 30.4 µM in experiment [1]; greater than 100 µM in [2]; 61.9 µM in experiment [3]; 96.4 µM in experiment [4]; greater than 100 µM in experiment [5]; 41.5 µM in experiment [6]. Moreover, the TGI amounted to 32.1 µM in [7], 26.7 µM in experiment [8] and 31.1 µM in experiment [9].

For `CC1(C2CCC3(C)OC3C2)CO1` (centres undefined), the TGI in experiment [1], in experiment [3], in [4], in [5], in experiment [10] and in [7] was greater than 100 µM each time. For the same compound, the TGI in experiment [8] and in [9] was greater than 100 µM throughout.

For the compound `CSc1ccc(/C=C2\N=C(c3ccccc3)N(/N=C/c3cc4cc(C)ccc4nc3Cl)C2=O)cc1`, the TGI in experiment [1] stood at 35.1 µM; in experiment [2], 96.5 µM; in [3], 47.5 µM; in experiment [4], 57.2 µM; in experiment [5], 33.8 µM; in [6] it was 47.6 µM. For the same compound, the TGI turned out to be 32.9 µM in experiment [7], 66.1 µM in experiment [8] and 33.5 µM in experiment [9].

On to `Cc1cc2cc3c(cc2c(-c2ccc(N)cc2)n1)OCO3`, for which the TGI in experiment [1] is greater than 100 µM; in [2] it was greater than 100 µM; in experiment [3], 47.3 µM; in [4], 92 µM; in experiment [5] it was greater than 100 µM; in experiment [6], greater than 100 µM. Besides, the figures for the TGI in experiment [7], in experiment [8] and in [9] were 71.9 µM, greater than 100 µM and greater than 100 µM, respectively.

For the compound `Cc1[nH]c(=O)[nH]c(=S)c1C(=O)Nc1cccc2cc3ccccc3cc12`, the TGI in [1], in [2], in experiment [3], in [4], in experiment [5] and in experiment [10] was greater than 100 µM throughout. Moreover, the TGI in experiment [7], in [8] and in experiment [9] was greater than 100 µM throughout.

Turning to `O=C1C=CC(=O)c2c(O)c(N3CCN(CCOCCO)CC3)c(Cl)c(O)c21`, the total growth inhibition concentration (TGI) is 817 nM [middle of 4 runs] in experiment [2]; greater than 100 µM in experiment [4]; 4.68 µM [middle of 4 runs] in experiment [10]; 1.81 µM [middle of 4 runs] in [7]; 13.5 µM and 7.9 µM and 19.9 µM in [8]; 1.56 µM [middle of 4 runs] in experiment [9]. The GI50 (usually the concentration at which growth is held to half of that of the control) is 0.265 µM and 0.0439 µM in experiment [4]; 2.69 µM in experiment [10]; 688 nM [middle of 4 runs] in experiment [7]; 4.59 µM [middle of 4 runs] in experiment [8].

Turning to `CCN(CC)CCN(C(=O)C(C)(C)C)c1ccccc1N`, the TGI in [1], in experiment [2], in experiment [3], in experiment [4], in experiment [5] and in experiment [10] was greater than 100 µM throughout. In addition, the total growth inhibition concentration (TGI) in [7], in experiment [8] and in experiment [9] was greater than 100 µM in each case.

Take `CC(C)C(=O)Oc1cc2c(=O)oc3c(OC(=O)C(C)C)c(OC(=O)C(C)C)cc4c(=O)oc(c1OC(=O)C(C)C)c2c34`: the TGI in [1], in experiment [2], in [4], in [5], in experiment [6] and in experiment [10] was greater than 100 µM throughout. The TGI in experiment [7], in experiment [8] and in experiment [9] was greater than 100 µM each time.

For `C/C(=N\Nc1nc2ccccc2[nH]1)c1cc2ccccc2cn1`, the TGI in [1] is 0.638 µM; in experiment [2] it was 2.51 µM; in experiment [4], greater than 100 µM; in [5] it was 1.88 µM; in experiment [6], 1.97 µM; in [10], 1.69 µM. For the same compound, the TGI in experiment [7] turned out to be 1.6 µM; in experiment [8] it was 12.7 µM; in [9] it was 5.16 µM.

Consider `CSc1nc(NC(C)C)c2c(n1)Sc1nc3ccccc3n1C2O` (centres undefined), for which the TGI was 81.8 µM in experiment [1]; greater than 100 µM in [2]; greater than 100 µM in experiment [4]; greater than 100 µM in experiment [5]; greater than 100 µM in experiment [6]; greater than 100 µM in experiment [8]. The compound also gave a TGI in experiment [9] greater than 100 µM.

As for `CO[C@]1(CN2CCN3CCCC[C@@H]3C2)/C=C/C[C@H](C)[C@@H](C)S(=O)(=O)NC(=O)c2ccc3c(c2)N(C[C@@H]2CC[C@H]21)C[C@@]1(CCCc2cc(Cl)ccc21)CO3`, the GI50 in experiment [1] was 1.86 µM; in experiment [3], 0.0297 µM; in [4], 2.28 µM; in [5], 1.73 µM; in experiment [6], 1.78 µM; in [7], 1.71 µM. Further, the GI50 in [8] was 2.67 µM; in experiment [9] it was 2.33 µM. For the same compound, the TGI in experiment [1] stood at 3.9 µM; in experiment [3], 0.153 µM; in experiment [4], 6.57 µM; in [5] it was 3.25 µM; in [6], 3.27 µM; in experiment [7] it was 3.11 µM. In addition, the TGI in [8] is 7.5 µM; in experiment [9], 6.39 µM.

Regarding `CC(=O)O[C@H]1CC[C@@]2(C)[C@H](CC[C@@H]3[C@@H]2CC[C@]2(C)[C@@H](c4ccc(=O)oc4)C[C@H]4O[C@]342)C1`, the TGI in experiment [2] is 29.5 µM; in [3], 0.592 µM; in experiment [4], 13 µM; in experiment [5], 36.8 µM; in experiment [10] it was 7.75 µM; in experiment [7] it was 1.51 µM. In experiment [8], the TGI turned out to be 5.68 µM.

Turning to `NCCC1CN(C(=O)OCc2ccccc2)c2ccccc21` (centres undefined), the TGI in [1] was greater than 54.6 µM; in experiment [2], 14.5 µM; in [4], 26.9 µM; in experiment [5], 48.2 µM; in [6], 46.6 µM; in experiment [10], 26.8 µM. Moreover, the TGI in experiment [7] is 24.7 µM; in experiment [8], greater than 59.6 µM; in experiment [9], greater than 54.8 µM.

As to `CC(=O)Nc1cc(Nc2cc(=O)[nH]c(=O)[nH]2)ccc1C`, the TGI in experiment [1], in experiment [2], in [3], in experiment [4], in experiment [5] and in experiment [6] was greater than 100 µM in each case. In addition, the TGI in [10], in experiment [7] and in experiment [9] was greater than 100 µM in each case.

Consider `CC(=O)CC(=O)CCC(=O)O`, for which the TGI in [1], in experiment [2], in experiment [3], in experiment [4], in experiment [5] and in [10] was greater than 100 µM in each case. Also, the TGI in experiment [8] and in experiment [9] was greater than 100 µM in each case.

Take `CCOP(=O)(OCC)/C(C#N)=C/c1cccn1Cc1ccccc1`: the TGI in experiment [1] was greater than 100 µM; in experiment [2] it was greater than 100 µM; in experiment [4] it was greater than 100 µM; in [5], 78.3 µM; in [6] it was 57.5 µM; in experiment [10], 51.8 µM. Moreover, the TGI in experiment [7] was 32.5 µM; in experiment [8] it was greater than 100 µM; in experiment [9] it was greater than 100 µM.

With `CCOC(=O)C1(C(F)(F)F)N=C(CC)OC(N2CCOCC2)=N1` (centres undefined), the TGI in experiment [1], in experiment [2], in experiment [3], in [4], in experiment [5] and in experiment [6] was greater than 100 µM throughout. In addition, the TGI in experiment [7], in experiment [8] and in experiment [9] was greater than 100 µM in each case.

For `NC1=NCC(CN2CCCC2)O1` (centres undefined), the TGI in experiment [1], in experiment [2], in [3], in experiment [4], in experiment [5] and in experiment [6] was greater than 100 µM in each case. Moreover, the TGI in experiment [7], in experiment [8] and in experiment [9] was greater than 100 µM in each case.

Turning to `C=C(C)[C@@H]1CC[C@]2(C(=O)O)CC[C@]3(C)[C@H](CCC4[C@@]5(C)CC[C@H](C(=O)/C=C/c6ccc(O)c(O)c6)C(C)(C)[C@@H]5CC[C@]43C)[C@@H]12` (some centres undefined), the TGI in experiment [1] is 6.51 µM; in experiment [2], 26.8 µM; in experiment [3], greater than 100 µM; in [4] it was greater than 100 µM; in experiment [5], 28.2 µM; in experiment [6] it was 35.7 µM. Moreover, the TGI in [7] is 18.8 µM; in experiment [8], 19.4 µM; in experiment [9], 39.9 µM.

In the case of `CC(C)OC1OC(CO)C(O)CC1n1cc(F)c(=O)[nH]c1=O` (centres undefined), the TGI in experiment [1] is greater than 100 µM; in experiment [2] it was greater than 100 µM; in experiment [4] it was 86.4 µM; in experiment [5], greater than 100 µM; in [6], greater than 100 µM; in [10], greater than 100 µM. Besides, the TGI in experiment [7] and in [9] was greater than 100 µM throughout.

In the case of `Cc1nc2ccc(Cl)cc2c2c1CCN2c1ccccc1`, the TGI in experiment [1] was 62.4 µM; in experiment [2], 95.3 µM; in experiment [3] it was 11.1 µM; in [4] it was 21.8 µM; in experiment [5] it was 39.1 µM; in [6], 13.7 µM. Besides, the values for the TGI in [10], in [7] and in [9] were 22 µM, 20.7 µM and 37.7 µM, respectively.

Take `O=C1C=CC(=O)c2c(Cl)ccc(O)c21`: the TGI in [2] is 39.1 µM; in [3], 18.5 µM; in experiment [4] it was greater than 74 µM; in experiment [5], greater than 100 µM; in experiment [10], greater than 100 µM; in experiment [7], 33.1 µM. In experiment [8], the TGI was greater than 100 µM.

On to `CCOC(=O)C1CCCCN1CCc1c[nH]c2ccccc12` (centres undefined), for which the TGI in experiment [1], in [2], in [4], in experiment [5], in [6] and in [10] was greater than 100 µM in each case. Also, the TGI in [7], in [8] and in experiment [9] was greater than 100 µM throughout.

Consider `CCOC(=O)c1cn(C)c(=S)n2c1nc1ccccc12`, for which the concentration for total growth inhibition (TGI) in [1], in experiment [2], in [4], in experiment [5], in [6] and in experiment [10] was greater than 100 µM in each case. For the same compound, the TGI in experiment [7] is greater than 100 µM.

Consider `O=C(NNCc1ccc(Cl)cc1)Nc1cccc2ccccc12`, for which the TGI in [1], in experiment [2], in experiment [3], in experiment [4], in experiment [5] and in experiment [10] was greater than 100 µM each time. In addition, the TGI in experiment [7] and in experiment [9] was greater than 100 µM each time.

As to `Cc1csc(NC(=NCCN2CCOCC2)Nc2nc(C)cs2)n1`, the TGI in experiment [2], in experiment [3], in experiment [4], in [5], in [10] and in experiment [7] was greater than 100 µM in each case. The compound further had a TGI in experiment [8] greater than 100 µM.

On to `COc1c(C)c(C/C=C(\C)CC/C=C(\C)CCC=C(C)C)c(OC)c(OC)c1OC`, for which the TGI in experiment [1], in experiment [2], in experiment [4], in experiment [5], in experiment [6] and in experiment [7] was greater than 100 µM each time. Moreover, the TGI in experiment [8] and in [9] was greater than 100 µM in each case.

`Cc1cc2c(c(=O)n1C)SCC2`: the TGI in experiment [1], in [2], in [4], in experiment [5], in experiment [6] and in experiment [10] was greater than 100 µM each time. Moreover, the TGI in experiment [7], in [8] and in [9] was greater than 100 µM each time.
